Assays:
[1] = White, Amber and Yellow polymorphic forms of WAY; literature (Yeadon 1985; Xiaorong He 2000); cited from earlier work
[2] = Form I vs Form II, room temperature; Zhang et al. 2002; cited from earlier work
[3] = cocrystal compared with crystals of fluoxetine HCl

CC(=O)Nc1ccc(C)cc1[N+](=O)[O-] [amber form, 4-methyl-2-nitroacetanilide]
relative stability of the three forms [1]: least stable

Cc1ccnc(NS(=O)(=O)c2ccc(N)cc2)n1 [sulfamerazine Form II, Sulfamerazine]
relative stability of polymorphic forms [2]: most stable form at room temperature

CNCCC(Oc1ccc(C(F)(F)F)cc1)c1ccccc1.Cl.O=C(O)c1ccccc1 (centres unmarked) [fluoxetine HCl:benzoic acid]
dissolution rate [3]: lower dissolution rate

CC(=O)Nc1ccc(C)cc1[N+](=O)[O-] [white form, 4-methyl-2-nitroacetanilide]
relative stability of the three forms [1]: most stable form

CC(=O)Nc1ccc(C)cc1[N+](=O)[O-] [yellow form, 4-methyl-2-nitroacetanilide]
relative stability of the three forms [1]: more stable than the amber form

Reference: patent US8920559B2, “Screening for solid forms by ultrasound crystallization and cocrystallization using ultrasound” (Aptuit (West Lafayette), LLC, priority 2004, dated 2014)
